Assay results reported in PubChem BioAssay AID330 (DTP/NCI, 2004).
Values joined by “and” are separate entries in the source; they are usually repeats but may differ in a detail not shown here. Equal entries are not always repeated. Inconclusive results and toxic doses are left out. Rule for the calls: active = survival T/C of 150% or more; inactive = T/C below 125% in these data.

Tested on: P388 leukemia ip, CD2F1 mice, survival T/C
Assay: NCI In Vivo Anticancer Drug Screen. Data for tumor model P388 Leukemia (intraperitoneal) in CD2F1 (CDF1) mice
Conditions: endpoint: median survival time, higher = longer survival
Summary of the method: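 Mice carrying the transplanted tumor received test compound or vehicle. Survival was recorded in each group, and the value is the treated-group measurement divided by that of the vehicle-treated control group.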

[1] = dose: 50.0 mg/kg/injection, schedule: Q01DX005 (ip), vehicle: saline with Tween-80
[2] = dose: 50.0 mg/kg/injection, schedule: Q01DX009 (ip), vehicle: saline with Tween-80
[3] = dose: 60.0 mg/kg/injection, schedule: Q01DX005 (ip), vehicle: saline with Tween-80
[4] = dose: 120.0 mg/kg/injection, schedule: Q01DX005 (ip), vehicle: saline with Tween-80
[5] = dose: 240.0 mg/kg/injection, schedule: Q01DX005 (ip), vehicle: saline with Tween-80
[6] = dose: 25.0 mg/kg/injection, schedule: Q01DX009 (ip), vehicle: Klucel (hydroxypropylcellulose) (HPC)
[7] = dose: 100.0 mg/kg/injection, schedule: Q01DX009 (ip), vehicle: Klucel (hydroxypropylcellulose) (HPC)
[8] = dose: 60.0 mg/kg/injection, schedule: Q01DX005 (ip), vehicle: Klucel (hydroxypropylcellulose) (HPC)
[9] = dose: 120.0 mg/kg/injection, schedule: Q01DX005 (ip), vehicle: Klucel (hydroxypropylcellulose) (HPC)
[10] = dose: 240.0 mg/kg/injection, schedule: Q01DX005 (ip), vehicle: Klucel (hydroxypropylcellulose) (HPC)
[11] = dose: 100.0 mg/kg/injection, schedule: Q01DX005 (ip), vehicle: saline with Tween-80
[12] = dose: 200.0 mg/kg/injection, schedule: Q01DX005 (ip), vehicle: saline with Tween-80
[13] = dose: 50.0 mg/kg/injection, schedule: Q01DX005 (ip), vehicle: Klucel (hydroxypropylcellulose) (HPC)
[14] = dose: 100.0 mg/kg/injection, schedule: Q01DX005 (ip), vehicle: Klucel (hydroxypropylcellulose) (HPC)
[15] = dose: 200.0 mg/kg/injection, schedule: Q01DX005 (ip), vehicle: Klucel (hydroxypropylcellulose) (HPC)

Measured: T/C

CS(=O)(=O)OCCCCOS(C)(=O)=O
inactive: dose: 3.75 mg/kg/injection, schedule: Q01DX009 (ip), vehicle: saline with Tween-80 90 % of control | dose: 3.75 mg/kg/injection, schedule: Q03HX008 (ip), vehicle: saline with Tween-80 104 % of control | dose: 3.75 mg/kg/injection, schedule: Q03HX016 (ip), vehicle: saline with Tween-80 100 % of control | dose: 3.75 mg/kg/injection, schedule: Q03HX024 (ip), vehicle: saline with Tween-80 100 % of control | dose: 7.5 mg/kg/injection, schedule: Q03HX008 (ip), vehicle: saline with Tween-80 109 % of control | dose: 7.5 mg/kg/injection, schedule: Q03HX016 (ip), vehicle: saline with Tween-80 100 % of control | dose: 7.5 mg/kg/injection, schedule: Q03HX024 (ip), vehicle: saline with Tween-80 100 % of control | dose: 15.0 mg/kg/injection, schedule: Q01DX009 (ip), vehicle: saline with Tween-80 90 % of control | dose: 15.0 mg/kg/injection, schedule: Q01DX009 (oral), vehicle: saline with Tween-80 104 % of control | dose: 15.0 mg/kg/injection, schedule: Q03HX008 (ip), vehicle: saline with Tween-80 109 % of control | dose: 15.0 mg/kg/injection, schedule: Q03HX016 (ip), vehicle: saline with Tween-80 109 % of control | dose: 15.0 mg/kg/injection, schedule: Q03HX024 (ip), vehicle: saline with Tween-80 113 % of control | dose: 25.0 mg/kg/injection, schedule: Q01DX005 (ip), vehicle: saline with Tween-80 108 % of control | dose: 30.0 mg/kg/injection, schedule: Q01DX001 (ip), vehicle: saline with Tween-80 110 % of control | dose: 30.0 mg/kg/injection, schedule: Q01DX009 (ip), vehicle: saline with Tween-80 100 % of control | dose: 30.0 mg/kg/injection, schedule: Q01DX009 (oral), vehicle: saline with Tween-80 104 % of control | dose: 30.0 mg/kg/injection, schedule: Q03HX008 (ip), vehicle: saline with Tween-80 109 % of control | dose: 30.0 mg/kg/injection, schedule: Q03HX016 (ip), vehicle: saline with Tween-80 100 % of control | dose: 30.0 mg/kg/injection, schedule: Q04DX003 (ip), vehicle: saline with Tween-80 90 % of control | dose: 30.0 mg/kg/injection, schedule: Q08DX002 (ip), vehicle: saline with Tween-80 105 % of control | [1] 113 % of control and 93 % of control | dose: 60.0 mg/kg/injection, schedule: Q01DX001 (ip), vehicle: saline with Tween-80 110 % of control | dose: 60.0 mg/kg/injection, schedule: Q01DX001 (oral), vehicle: saline with Tween-80 100 % of control | dose: 60.0 mg/kg/injection, schedule: Q08DX002 (ip), vehicle: saline with Tween-80 100 % of control | dose: 240.0 mg/kg/injection, schedule: Q08DX002 (ip), vehicle: saline with Tween-80 100 % of control

CNc1ccccc1C(=O)NNC(=O)Nc1ccc(SC)cc1
inactive: [2] 103 % of control | dose: 100.0 mg/kg/injection, schedule: Q01DX009 (ip), vehicle: saline with Tween-80 97 % of control | dose: 200.0 mg/kg/injection, schedule: Q01DX009 (ip), vehicle: saline with Tween-80 100 % of control

CC(=O)NS(=O)(=O)c1ccc(N=NC2C(=O)N(C(=O)c3ccc(Cl)cc3)N=C2C)cc1 (stereo unspecified)
inactive: dose: 1.5 mg/kg/injection, schedule: Q01DX001 (ip), vehicle: saline with Tween-80 100 % of control | dose: 3.0 mg/kg/injection, schedule: Q01DX001 (ip), vehicle: saline with Tween-80 104 % of control | dose: 6.0 mg/kg/injection, schedule: Q01DX001 (ip), vehicle: saline with Tween-80 107 % of control | dose: 12.0 mg/kg/injection, schedule: Q01DX001 (ip), vehicle: saline with Tween-80 100 % of control | dose: 12.5 mg/kg/injection, schedule: Q01DX001 (ip), vehicle: saline with Tween-80 94 % of control

Cn1c(N)nc2c(nc(OCc3ccccc3)n2C2OC(CO)C(O)C2O)c1=O (stereo unspecified)
inactive: [3] 100 % of control | [4] 94 % of control | [5] 103 % of control

Cn1c(N)c(C(=O)/C=C/c2ccccc2)c(=O)n(C)c1=O
inactive: dose: 12.5 mg/kg/injection, schedule: Q01DX009 (ip), vehicle: Klucel (hydroxypropylcellulose) (HPC) 99 % of control and 124 % of control | [6] 120 % of control and 93 % of control | [7] 93 % of control and 113 % of control and 92 % of control | dose: 200.0 mg/kg/injection, schedule: Q01DX009 (ip), vehicle: Klucel (hydroxypropylcellulose) (HPC) 116 % of control

CCCCC(=O)Oc1cc(=O)n(C)c2cc(C)n(C)c(=O)c12
inactive: [8] 98 % of control | [9] 103 % of control | [10] 106 % of control

COC1/C=C/OC2(C)Oc3c(C)c(O)c4c(O)c(c(/C=N\N(C)C56CC7CC(CC(C7)C5)C6)c(O)c4c3C2=O)NC(=O)C(C)=C/C=C/C(C)C(O)C(C)C(O)C(C)C(OC(C)=O)C1C (stereo unspecified)
inactive: [8] 93 % of control | [9] 96 % of control | [10] 102 % of control

CC1OC(Oc2c(-c3ccc(O)c(O)c3O)oc3cc(O)ccc3c2=O)C(O)C(O)C1O (stereo unspecified)
inactive: [3] 102 % of control | [4] 98 % of control | [5] 99 % of control

CN(C)N=Nc1ccc(S(N)(=O)=O)cc1
inactive: [6] 93 % of control | dose: 50.0 mg/kg/injection, schedule: Q01DX009 (ip), vehicle: Klucel (hydroxypropylcellulose) (HPC) 114 % of control | [7] 100 % of control

FC(F)(F)c1ccc(C(Nc2nncs2)Nc2nncs2)cc1
inactive: [1] 93 % of control | [11] 96 % of control | [12] 105 % of control

CC(C)NC(=O)OCc1c(COC(=O)NC(C)C)c([N+](=O)[O-])n2c1CCC2
inactive: dose: 25.0 mg/kg/injection, schedule: Q01DX005 (ip), vehicle: Klucel (hydroxypropylcellulose) (HPC) 95 % of control | [13] 99 % of control | [14] 99 % of control and 97 % of control | [15] 104 % of control and 94 % of control | dose: 400.0 mg/kg/injection, schedule: Q01DX005 (ip), vehicle: Klucel (hydroxypropylcellulose) (HPC) 100 % of control

O=[N+]([O-])c1ccc(CS(=O)(=O)c2cccs2)o1
inactive: dose: 50.0 mg/kg/injection, schedule: Q01DX009 (ip), vehicle: suspension in saline 106 % of control | dose: 100.0 mg/kg/injection, schedule: Q01DX009 (ip), vehicle: suspension in saline 100 % of control

COC(=O)C1=COC(C)C2CN3CCc4c([nH]c5cc(OC)c(OC)cc45)C3CC12 (stereo unspecified)
inactive: [1] 101 % of control | [11] 102 % of control | [12] 115 % of control

CCCCCCC(=O)/C=C/c1ccc(OC(=O)c2ccccc2)cc1
inactive: dose: 50.0 mg/kg/injection, schedule: Q01DX009 (ip), vehicle: saline 97 % of control | dose: 100.0 mg/kg/injection, schedule: Q01DX009 (ip), vehicle: saline 97 % of control | dose: 200.0 mg/kg/injection, schedule: Q01DX009 (ip), vehicle: saline 110 % of control

CSCc1csc(N)n1
inactive: dose: 12.5 mg/kg/injection, schedule: Q01DX009 (ip), vehicle: other 102 % of control | dose: 25.0 mg/kg/injection, schedule: Q01DX009 (ip), vehicle: other 96 % of control | dose: 50.0 mg/kg/injection, schedule: Q01DX009 (ip), vehicle: other 111 % of control | dose: 100.0 mg/kg/injection, schedule: Q01DX009 (ip), vehicle: other 111 % of control | dose: 200.0 mg/kg/injection, schedule: Q01DX009 (ip), vehicle: other 100 % of control

O=N[O-].O=N[O-].O=N[O-].[Co+3].[NH-]CC[N-]CC[NH-]
inactive: dose: 12.5 mg/kg/injection, schedule: Q01DX009 (ip), vehicle: saline with Tween-80 95 % of control | dose: 25.0 mg/kg/injection, schedule: Q01DX009 (ip), vehicle: saline with Tween-80 104 % of control | [2] 114 % of control

CC(=O)[O][Hg][c]1cc(-c2ccc(N=Nc3c(S(=O)(=O)O)cc4cccc(N)c4c3O)cc2)ccc1N=Nc1c(S(=O)(=O)O)cc2cccc(N)c2c1O
inactive: dose: 3.13 mg/kg/injection, schedule: Q04DX003 (ip), vehicle: saline with Tween-80 90 % of control | dose: 6.25 mg/kg/injection, schedule: Q04DX003 (ip), vehicle: saline with Tween-80 95 % of control

CC1=CC(=O)C(=Ic2ccccc2)C(=O)O1
inactive: [13] 100 % of control | [14] 98 % of control | [15] 104 % of control
